Structures can show the parent of a compound that is named as a salt.
Molecular target: RIPK1 (recombinant GST-RIPK1 kinase domain, residues 1-327) (Homo sapiens (Human), UniProt Q13546)
Test: RIPK1-ADP-Glo Enzymatic Assay
Format: biochemical
Details: ADP-Glo; 25 nM GST-RIPK1, 300 μM ATP; assay lower limit ~25 nM; read-out: RIPK1 V0 Ec50
Method in brief: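 Luminescent ADP-Glo readout of ATP-to-ADP conversion. Conditions: 25 nM enzyme, 300 μM ATP, 3 μM dephospho-MBP, pH 7.3 HEPES buffer with 20 mM MgCl2; 30 min compound pre-incubation, 150 min reaction. EC50 via four-parameter sigmoidal regression; assay floor ~25 nM.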

RIPK1 (recombinant GST-RIPK1 kinase domain, residues 1-327), sequence (Q13546 1-327): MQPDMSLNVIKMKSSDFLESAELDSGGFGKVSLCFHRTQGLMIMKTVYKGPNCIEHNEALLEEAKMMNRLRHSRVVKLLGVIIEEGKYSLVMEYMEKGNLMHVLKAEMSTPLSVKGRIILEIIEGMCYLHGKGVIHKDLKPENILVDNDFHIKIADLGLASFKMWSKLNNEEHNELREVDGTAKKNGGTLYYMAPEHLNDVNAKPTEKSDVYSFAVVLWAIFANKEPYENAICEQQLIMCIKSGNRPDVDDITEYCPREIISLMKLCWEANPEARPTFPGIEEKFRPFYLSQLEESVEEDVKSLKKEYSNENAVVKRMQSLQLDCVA

Row | Compound | EC50 [µM]
1 | O=C1N2[C@H](CC[C@H]2c2cccc(F)c2)OC12CCN(c1ccnc3c(F)cnn13)CC2 [Example 4.15, (5′S,7a′S)-5′-(3-fluorophenyl)-1-(3-fluoropyrazolo[1,5-a]pyrimidin-7-yl)tetrahydro-3′H-spiro[piperidine-4,2′-pyrrolo[2,1-b] [1,3]oxazol]-3′-one] | < 0.025
2 | O=C1N2[C@@H](CC[C@H]2c2cc(F)cc(F)c2)OC12CCN(C(c1ccccc1)C(F)F)CC2 (stereo partly drawn) [Example 22.1, (5′S,7a′R)-1-(2,2-Difluoro-1-phenylethyl)-5′-(3,5-difluorophenyl)tetrahydro-3′H-spiro[piperidine-4,2′-pyrrolo[2,1-b]oxazol]-3′-one] | 0.221
3 | N#Cc1cnc(N2CCC3(CC2)S[C@@H]2CC[C@@H](c4ccccc4)N2C3=O)n2ncnc12 [Example 4.146, 5-[(5′S,7a′R)-3′-oxo-5′-phenyltetrahydro-1H,3′H-spiro[piperidine-4,2′-pyrrolo[2,1-b] [1,3]thiazol]-1-yl] [1,2,4]triazolo[1,5-c] pyrimidine-8-carbonitrile] | < 0.025
4 | COc1cc(F)cc([C@@H]2CC[C@H]3OC4(CCN(C(=O)c5ccccc5)CC4)C(=O)N32)c1 [Example 17.9, (5′S,7a′R)-1-benzoyl-5′-(3-fluoro-5-methoxyphenyl)tetrahydro-3′H-spiro[piperidine-4,2′-pyrrolo[2,1-b]oxazol]-3′-one] | 0.0407
5 | O=C1N2[C@@H](CC[C@H]2c2ccccc2)OC12CCN(c1cc(-n3ccnc3)ccn1)CC2 [Example 11.21, (5′S,7a′R)-1-[4-(1H-imidazol-1-yl)pyridin-2-yl]-5′-phenyltetrahydro-3′H-spiro[piperidine-4,2′-pyrrolo[2,1-b][1,3]oxazol]-3′-one] | 0.229
6 | CC1CN(C(=O)c2ccccc2)CCC12O[C@@H]1CC[C@@H](c3cc(F)cc(F)c3)N1C2=O (stereo partly drawn) [Example 6.109, (5′S,7a′R)-1-(benzene-carbonyl)-5′-(3,5-difluorophenyl)-3-methyltetrahydro-3′H-spiro[piperidine-4,2′-pyrrolo[2,1-b][1,3]-oxazol]-3′-one] | < 0.025
7 | O=C(c1cncnc1)N1CCC2(CC1)O[C@@H]1CC[C@@H](c3cc(F)cc(F)c3)N1C2=O [Example 6.40, (5′S,7a′R)-5′-(3,5-difluorophenyl)-1-(pyrimidine-5-car-bonyl)tetrahydro-3′H-spiro[piperidine-4,2′-pyrrolo[2,1-b][1,3]oxazol]-3′-one] | 0.436
8 | Cc1cc(C)cc(C(=O)N2CCC3(CC2)O[C@@H]2CC[C@@H](c4cccc(F)c4)N2C3=O)c1 [Example 6.132, (5′S,7a′R)-1-(3,5-dimethylbenzene-1-carbonyl)-5′-(3-fluoro-phenyl)tetrahydro-3′H-spiro[piperidine-4,2′-pyrrolo[2,1-b][1,3]oxazol]-3′-one] | 0.0717
9 | O=C(c1ccc(F)cc1)N1CCC2(CC1)O[C@@H]1CC[C@@H](c3cc(F)cc(F)c3)N1C2=O [Example 6.70, (5′S,7a′R)-5′-(3,5-difluorophenyl)-1-(4-fluorobenzene-1-carbonyl)tetrahydro-3′H-spiro[piperidine-4,2′-pyrrolo[2,1-b] [1,3]oxazol]-3′-one] | < 0.025
10 | O=C1N2[C@@H](CC[C@H]2c2cc(F)cc(F)c2)OC12CCN(c1ccc(Br)c3ccnn13)CC2 [Example 13.6, (5′S,7a′R)-1-(4-bromopyrazolo[1,5-a]pyridin-7-yl)-5′-(3,5-difluorophenyl)tetrahydro-3′H-spiro[piperidine-4,2′-pyrrolo[2,1-b]oxazol]-3′-one, TFA salt] | < 0.025
11 | O=C(c1cccc(C2CC2)c1)N1CCC2(CC1)O[C@@H]1CC[C@@H](c3cccc(F)c3)N1C2=O [Example 6.118, (5′S,7a′R)-1-(3-cyclopropylbenzene-1-carbonyl)-5′-(3-fluorophenyl)tetra-hydro-3′H-spiro [piperidine-4,2′-pyrrolo[2,1-b][1,3]oxazol]-3′-one] | < 0.025
12 | O=C(c1csnn1)N1CCC2(CC1)O[C@@H]1CC[C@@H](c3cc(F)cc(F)c3)N1C2=O [Example 5.49, (5′S,7a′R)-5′-(3,5-difluoro-phenyl)-1-(1,2,3-thiadi-azole-4-carbonyl)tetra-hydro-3′H-spiro[piperidine-4,2′-pyrrolo[2,1-b]oxazol]-3′-one] | 0.0781
13 | O=C(c1ccoc1)N1CCC2(CC1)O[C@@H]1CC[C@@H](c3cccc(F)c3)N1C2=O [Example 6.125, (5′S,7a′R)-5′-(3-fluoro-phenyl)-1-(furan-3-carbonyl)tetrahydro-3′H-spiro[piperidine-4,2′-pyrrolo[2,1-b] [1,3]oxazol]-3′-one] | < 0.025
14 | N#Cc1ccc(N2CCC3(CC2)O[C@@H]2CC[C@@H](c4ccccc4)N2C3=O)n2ncc(F)c12 [Example 4.177, 3-fluoro-7-[(5′S,7a′R)-3′-oxo-5′-phenyltetrahydro-1H,3′H-spiro[piperidine-4,2′-pyrrolo[2,1-b] [1,3]oxazol]-1-yl]pyrazolo[1,5-a] pyridine-4-carbonitrile] | < 0.025
15 | CC1CN(c2ccnc3ccnn23)CCC12O[C@@H]1CC[C@@H](c3ccccc3)N1C2=O (stereo partly drawn) [Example 4.235, (4R,5′S,7a′R)-3-methyl-5′-phenyl-1-(pyrazolo[1,5-a]pyrimidin-7-yl)tetrahydro-3′H-spiro[piperidine-4,2′-pyrrolo[2,1-b] [1,3]oxazol]-3′-one] | < 0.025
16 | N#Cc1cccc(C(=O)N2CCC3(CC2)O[C@@H]2CC[C@@H](c4cc(F)cc(F)c4)N2C3=O)c1 [Example 5.17, 3-((5′S,7a′R)-5′-(3,5-difluorophenyl)-3′-oxo-tetrahydro-3′H-spiro [piperidine-4,2′-pyrrolo-[2,1-b]oxazole]-1-carbon-yl)benzonitrile] | 0.025
17 | CCc1ccc(N2CCC3(CC2)O[C@@H]2CC[C@@H](c4ccccc4)N2C3=O)n2ncnc12 [Example 4.221, (5′S,7a′R)-1-(8-ethyl[1,2,4]triazolo[1,5-a]pyridin-5-yl)-5′-phenyltetrahydro-3′H-spiro[piperidine-4,2′-pyrrolo[2,1-b] [1,3]oxazol]-3′-one] | < 0.025
18 | O=C(c1cnc(C(F)F)cn1)N1CCC2(CC1)O[C@@H]1CC[C@@H](c3cc(F)cc(F)c3)N1C2=O [Example 6.84, (5′S,7a′R)-1-[5-(difluoromethyl)pyr-azine-2-carbonyl]-5′-(3,5-difluorophenyl)-tetrahydro-3′H-spiro [piperidine-4,2′-pyrrolo[2,1-b][1,3]-oxazol]-3′-one] | 0.405
19 | O=C1N2[C@@H](CC[C@H]2c2cc(F)cc(F)c2)OC12CCN(c1cc(-c3cnn(C(F)F)c3)ncn1)CC2 [Example 10.1, (5′S,7a′R)-1-(6-(1-(difluoromethyl)-1H-pyrazol-4-yl)pyrimidin-4-yl)-5′-(3,5-difluorophenyl) tetrahydro-3′H-spiro[piperidine-4,2′-pyrrolo[2,1-b]oxazol]-3′-one] | < 0.025
20 | Cc1ccc(F)c(C(=O)N2CCC3(CC2)O[C@@H]2CC[C@@H](c4cccc(F)c4)N2C3=O)c1 [Example 6.133, (5′S,7a′R)-1-(2-fluoro-5-methylbenzene-1-carbonyl)-5′-(3-fluoro-phenyl)tetrahydro-3′H-spiro[piperidine-4,2′-pyrrolo[2,1-b] [1,3]oxazol]-3′-one] | < 0.025
21 | O=C(c1nc(C2CC2)no1)N1CCC2(CC1)O[C@@H]1CC[C@@H](c3cc(F)cc(F)c3)N1C2=O [Example 6.35] | 0.0897

Reference: US12180226B2, “Spirotricycle RIPK1 inhibitors and methods of uses thereof” (Merck Sharp & Dohme LLC, priority 2021, dated 2024)
